Key:
Assay type in all cases: in vivo
[1] = Total body water (TBW) deuterium enrichment in mice
Text: In one aspect, deuterium labeling was achieved by intraperitoneal injection of 100% ^2H2O with NaCl added to make this fluid isotonic, then maintaining the achieved 5% ^2H enrichment in total body water (TBW) by providing 8% ^2H2O in drinking water to mice. Deuterium within total body water diffuses rapidly into all tissues and is excreted unchanged by the kidneys. Therefore, according to various embodiments, deuterium labeled fluids may be provided to an animal or human subject via injected and/or ingested fluid yielding a deuterium concentration of about 5% TBW. […] Higher TBW enrichments (up to 20% TBW ^2H) may improve sensitivity of dMRI detection. Such enrichments should be safe, as deuterium is non-radioactive, tasteless, colorless and without known side effects at these doses.
FIG. 9 is an illustration for one embodiment of a scheme 900 for labeling and imaging rapidly dividing cells. As shown, the method begins with total body irradiation (TBI) conditioning performed one day prior to the infusion of a transplant graft (day −1), indicated as 902. In the embodiment shown, the bone marrow transplant (BMT) graft, containing bone marrow stem cells and T cells from the donor spleen, is infused on day 0, indicated as 904. […]
For measuring ^2H2O water levels in TBW (e.g. urine), we developed a simple and quantitative headspace-GC-NCI-MS method (publication pending). […]

[2] = Safety of deuterium enrichment in total body water
[3] = Total body water (TBW) deuterium enrichment in people

time for TBW deuterium enrichment to return to baseline (0.015%) after supplementation is discontinued [1]: approximately 7 days
time for TBW deuterium enrichment to return to baseline (0.015%) after supplementation is discontinued [3]: ~14 days
Compound: [2H]O[2H] [deuterated water]
toxicity ([2]; doses up to 20% in total body water): non-toxic
safety of higher TBW enrichment ([2]; enrichments up to and including approximately 20% TBW): safely achieved
effect on rates of DNA synthesis ([2]; in vivo): does not affect rates of DNA synthesis

Reference: patent US11684306B2, “Stable water isotope labeling and magnetic resonance imaging for visualization of the presence of and prediction of the likelihood of occurence of rapidly dividing cells” (THE UNITED STATES OF AMERICA, AS REPRESENTED BY THE …, priority 2016, dated 2023)
